Measurements reported in patent publication US5693830A, “Process for preparing the spiropyrone compounds” (Tokuyama Corporation, priority 1994, dated 1997).

Test: Photochromic properties of spiropyran compounds in methyl polymethacrylate film
Type: physicochemical
Settings: for ε (60 sec.) -ε (0 sec.): absorbancy at max. absorption wavelength, irradiated 60 seconds minus not irradiated; for ε (60 sec.) -ε (0 sec.) / Developed color tone: 25° C.; for λ MAX (max. absorption wavelength): color-developing film, spectrophotometer 220A; for Developed color tone: film 1.0×10^-4 mol/g, 0.1 mm thick, mercury lamp, 10 cm, 60 seconds; for t1/2 (half-value period): time until absorbancy decreases to one-half {ε(60 sec)-ε(0 sec)} after irradiation for 60 seconds
Experimental: The concentration of the above compound contained in the film was adjusted to be 1.0×10^-4 mol/g and the thickness was adjusted to be 0.1 mm. The photochromic film was exposed to the light of a mercury lamp SHL-100 produced by Toshiba Co. at a temperature of 25° C.+1° C. from a distance of 10 cm for 60 seconds so as to develop a color, in order to measure its photochromic properties. The photochromic properties were expressed as described below.
Max. absorption wavelength (λmax)
λmax of the color-developing film was found by using a spectrophotometer 220A manufactured by Hitachi, Ltd.
Absorbancy of the film at a maximum absorption wavelength after irradiated with light for 60 seconds under the above-mentioned conditions.
Absorbancy of the film that is not irradiated with light at a maximum absorption wave of when it is irradiated with light.
Time needed until the absorbancy of the film decreases to one-half {ε(60 sec)-ε(0 sec)} after irradiated with light for 60 seconds.

Row | Compound | ε (60 sec.) -ε (0 sec.) | λ MAX (max. absorption wavelength) | Developed color tone | t1/2 (half-value period)
1 | 3',4'-Dimethylspiro(2-bicyclo[3,3,1]nonene-9,2'-(2H)fluoro(2,3-b)pyran) [compound 38] | 0.6 | 430 nm | yellow | 10 s
2 | ClC12CC=CC(CCC1)C21C=C(Cc2ccccc2)c2c(cnc3ccccc23)O1 (stereo not shown) [compound 28, 5-Chloro-4'-benzylspiro(2-bicyclo(3,3,1)nonene-9,2'-(2H)quino(3,4-b)pyran)] | 0.9 | 402 nm | yellow | 16 s
3 | CCCCC1=CC2(Oc3c(C#N)cccc31)C1C=CCC2CCC1 (stereo not shown) [compound 29, 8'-Cyano-4'-n-butylspiro(2-bicyclo(3,3,1)nonene-9,2'-(2H)chromene)] | 0.5 | 494 nm | orange | 11 s
4 | CC1(C)CCC2(C)CC=CC1C21C=C(c2ccccc2)c2cccnc2O1 (stereo not shown) [compound 30] | 0.6 | 480 nm | orange | 26 s
5 | CCCC12CC=CC(CCC1)C21C=C(CC)c2ccc3c(-c4ccccc4)cccc3c2O1 (stereo not shown) [compound 31, 7'-Phenyl-4'-ethyl-5-n-propylspiro(2-bicyclo[3,3,1]nonene-9,2'-(2H)benzo(h)chromene)] | 0.7 | 460 nm | yellow | 90 s
6 | CCCCC1=CC2(Oc3c1ccc1ccccc31)C1C=CCC2CCC1 (stereo not shown) [compound 32, 4'-n-Butylspiro(2-bicyclo[3,3,1]nonene-9,2'-(2H)benzo(h)chromene)] | 0.8 | 445 nm | yellow | 110 s
7 | CCCC1=Cc2c(ccc3ccccc23)OC12C1C=CCC2CCC1 (stereo not shown) [compound 33, 3'-n-Propylspiro(2-bicyclo[3,3,1]nonene-9,2'-(2H)benzo(f)chromene)] | 0.6 | 410 nm | yellow | 18 s
8 | C1=CC2CCCC(C1)C21Oc2ccc3ccccc3c2C=C1CCc1ccccc1 (stereo not shown) [compound 34, 3'-Benzylmethylspiro(2-bicyclo[3,3,1]nonene-9,2'-(2H)benzo(f)chromene)] | 0.7 | 406 nm | yellow | 26 s
9 | CC(C)C1=Cc2c(ccc3ccccc23)OC12C1C=CCC2CCC1 (stereo not shown) [compound 35, 3'-i-Propylspiro(2-bicyclo[3,3,1]nonene-9,2'-(2H)benzo(f)chromene)] | 0.6 | 410 nm | yellow | 18 s
10 | COc1ccc(C2=Cc3c(ccc4ccccc34)OC23C2C=CCC3CCC2)cc1 (stereo not shown) [compound 36, 3'-p-methoxyphenylspiro(2-bicyclo[3,3,1]nonene-9,2'-(2H)benzo(f)chromene)] | 0.9 | 420 nm | yellow | 25 s
11 | CCC1=Cc2c(cnc3ccccc23)OC12C1C=CCC2CCC1 (stereo not shown) [compound 37, 3'-Ethylspiro(2-bicyclo[3,3,1]nonene-9,2'-(2H)quino(3,4-b)pyran)] | 0.5 | 415 nm | yellow | 22 s
12 | CCC1=C(Cc2ccccc2)C2(Oc3scc(Br)c31)C1C=CCC2CCC1 (stereo not shown) [compound 39, 4'-Ethyl-3'-benzyl-5'-bromospiro(2-bicyclo[3,3,1]nonene-9,2'-(2H)thieno(2,3-b)pyran)] | 0.6 | 465 nm | orange | 12 s
13 | CCCC1=C(Cc2ccccc2)c2c(ccc3ccccc23)OC12C1C=CCC2CCC1 (stereo not shown) [compound 40, 3'-n-Propyl-4'-benzylspiro(2-bicyclo[3,3,1]nonene-9,2'-(2H)benzo(f)chromene)] | 0.8 | 420 nm | yellow | 14 s
14 | C1=CC2CCCC(C1)C21Oc2ccc3ccccc3c2C(c2ccccc2)=C1CCc1ccccc1 (stereo not shown) [compound 41, 3'-Benzylmethyl-4'-phenylspiro(2-bicyclo[3,3,1]nonene-9,2'-(2H)benzo(f)chromene)] | 0.7 | 440 nm | yellow | 17 s
15 | CCC1=C(CC)C2(Oc3c1ccc1ccccc31)C1C=CCC2CCC1 (stereo not shown) [compound 42, 3',4'-Diethylspiro(2-bicyclo[3,3,1]nonene-9,2'-(2H)benzo(h)chromene)] | 1.0 | 450 nm | yellow | 28 s
16 | Spiro(2-bicyclo(3,3,1)nonene-9,2'-(2H)methylpyrrolo(2,3-b)pyran) [compound 27] | 1.0 | 470 nm | orange | 48 s
